Assay [1] concerns the target T1, Atypical chemokine receptor 3 (Homo sapiens, UniProt P25106). The assay can be described thus: Binding affinity to ACKR3 (unknown origin) by [125I] CXCL12 displacement assay.
Assay [2] deals with T1, Atypical chemokine receptor 3. The assay can be described thus: Binding affinity to NanoLuc tagged human wild type ACKR3 expressed in HEK293G cells using furimazine as NanoLuc substrate preincubated for 1 hr in dark in presence of (R)-N-(3-(2-fluorophenyl)-2methylallyl)-3,4,5-trimethoxyN-(2-(1-methylpyrrolidin-2yl)ethyl)benzamide followed by substrate addition and measured after 5 mins by NanoBRET competition binding assay. Format: cell-based. (In BRET a luciferase serves as donor, and the signal depends on an acceptor being close.)

The target is the same in assay [3]. The assay can be described thus: Binding affinity to NanoLuc tagged human wild type ACKR3 expressed in HEK293G cells using furimazine as NanoLuc substrate preincubated for 1 hr in dark in presence of (R)-N-(3-(2-fluorophenyl)-2methylallyl)-3,4,5-trimethoxyN-(2-(1-methylpyrrolidin-2yl)ethyl)benzamide followed by substrate addition and measured after 5 mins by NanoBRET assay. Format: cell-based.

For assay [4] the target is unchanged. The assay can be described thus: Binding affinity to NanoLuc tagged human wild type ACKR3 expressed in HEK293G cells using furimazine as NanoLuc substrate preincubated for 1 hr in dark followed by substrate addition and measured after 5 mins by NanoBRET assay. Format: cell-based. To be noted: time 65.0 min.
Assay [5] shares this target. The assay can be described thus: Binding affinity to N-terminal SNAP-tagged ACKR3 (unknown origin) transfected in HEK293T cells assessed as internalization by measuring receptor colocalized intracellular fluorescence at 50 to 100 nM preincubated with (R)-N-(3-(2-fluorophenyl)-2-methylallyl)-3,4,5-trimethoxy-N-(2-(1-methylpyrrolidin-2-yl)ethyl)benzamide for 30 mins followed by fluorescent compound addition and further incubated for 30 mins by confocal microscopic analysis. In kind it is cell-based. Particulars: dose 50-100 nM.

Assay [6] has the same target. The assay can be described thus: Binding affinity to N-terminal SNAP-tagged ACKR3 (unknown origin) transfected in HEK293T cells assessed as internalization by measuring receptor colocalized intracellular fluorescence at 50 to 100 nM incubated for 30 mins by confocal microscopic analysis. Format: cell-based. To be noted: dose 50-100 nM.

The source made the active and inactive calls. The calls are words filed in the database; no cut-off is given here.

Here are results for nine compounds from ChEMBL document CHEMBL5357017, “Small Molecule Fluorescent Ligands for the Atypical Chemokine Receptor 3 (ACKR3)” (ACS Med Chem Lett, 2024).

For orientation: EC50 means the concentration that produces a half-maximal response. High values mean a less potent agent, low ones a more potent agent. In general, Ki refers to the equilibrium dissociation constant of an inhibitor or competing ligand from its target. Broadly, the Kd is the equilibrium constant for the complex coming apart.

T1 sequence (P25106 whole entry): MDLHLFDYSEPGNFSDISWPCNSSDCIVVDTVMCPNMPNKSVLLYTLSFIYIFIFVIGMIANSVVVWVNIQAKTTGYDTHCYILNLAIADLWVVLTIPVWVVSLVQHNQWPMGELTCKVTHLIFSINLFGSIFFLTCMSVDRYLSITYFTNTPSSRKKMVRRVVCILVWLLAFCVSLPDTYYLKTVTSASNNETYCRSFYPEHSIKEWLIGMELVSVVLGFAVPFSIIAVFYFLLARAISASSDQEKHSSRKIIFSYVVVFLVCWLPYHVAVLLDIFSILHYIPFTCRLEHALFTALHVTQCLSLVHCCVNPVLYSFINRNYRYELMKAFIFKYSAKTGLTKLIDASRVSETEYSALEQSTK

In the case of `COc1cc(C(=O)N(CC[C@@H]2CCCN2C)C/C(C)=C/c2ccccc2F)cc(OC)c1OC`, the EC50 in assay [1] is 20 nM.

On to `COc1cc(C(=O)N(CC[C@H]2CCCN2C)C/C(C)=C/c2ccccc2F)cc(OC)c1OC`, for which the EC50 in assay [1] was 5.01 nM.

On to `Cc1ccc(C(=O)c2cn(Cc3cccc(Br)n3)c3ccccc3c2=O)cc1C`, for which the Ki in assay [2] was 39.8 nM.

For the compound `COc1cc(C(=O)N(CC[C@H]2CCCN2C)C/C(C)=C/c2ccccc2F)cc(OCCOCCOCCNC(=O)CCCCCNC(=O)CCC2=[N+]3C(C=C2)Cc2c(C)cc(C)n2[B-]3(F)F)c1OC` (some centres undefined), the Kd in assay [3] is 151 nM. Further, the result in assay [4] was Active.

As for `C/C(=C\c1ccccc1)CN(CCC1CCCN1C)C(=O)c1ccc2c(c1)OCCO2` (centres undefined), the Ki in assay [2] is 10000 nM.

Regarding `COc1cc(C(=O)N(CC[C@H]2CCCN2C)C/C(C)=C/c2ccccc2F)cc(OCCNC(=O)CCCCCNC(=O)CCC2=[N+]3C(=Cc4c(C)cc(C)n4[B-]3(F)F)C=C2)c1OC`, in assay [3], the Kd is 12.9 nM. Moreover, the result in assay [5] was inactive. In addition, the outcome in assay [4] and in assay [6] was Active.

On to `COc1cc(C(=O)N(CC[C@H]2CCCN2C)C/C(C)=C/c2ccccc2F)cc(OCCOCCNC(=O)CCCCCNC(=O)CCC2=[N+]3C(=Cc4c(C)cc(C)n4[B-]3(F)F)C=C2)c1OC`, for which the Kd in assay [3] was 81.3 nM. The outcome in assay [4] was Active.

Turning to `COc1ccc(C(=O)N(CCC2CCCN2C)C/C(C)=C/c2ccccc2F)cc1OC` (centres undefined), in assay [2], the Ki was 251 nM.

As to `COc1ccc(C(=O)N(CCC2CCCN2C)C/C(C)=C/c2cccc(F)c2)cc1OC` (centres undefined), in assay [2], the Ki is 631 nM.
